In patent publication US20090312364A1, “NOVEL CHROMEN-2-ONE DERIVATIVES AND THEIR USE AS MONOAMINE NEUROT[…]-UPTAKE INHIBITORS” (NeuroSearch A/S, priority 2006, published 2009):
Structures can show the parent of a compound that is named as a salt.

Legend:
Format in all cases: biochemical
[1] = target: T1, serotonine (5-HT) reuptake in synaptosomes (Rattus norvegicus, UniProt P31652); assay: In vitro inhibition of 5-HT reuptake in synaptosomes; settings: 3H-5-HT, as described in WO 97/16451, read-out: 5-HT-uptake IC50
T1 construct: in synaptosomes as described in WO 97/16451; from tissue
Procedure: (§1) A number of compounds were tested for their ability to inhibit the reuptake of the monoamine neurotransmitters dopamine (DA), noradrenaline (NA) and serotonine (5-HT) in synaptosomes as described in WO 97/16451.
(§2) The test values are given as IC50 (the concentration (μM) of the test substance which inhibits the specific binding of ^3H-DA, ^3H-NA, or ^3H-5-HT by 50%).

[2] = target: T2, dopamine (DA) reuptake in synaptosomes (Rattus norvegicus, UniProt P23977); assay: In vitro inhibition of DA reuptake in synaptosomes; settings: 3H-DA, as described in WO 97/16451, read-out: DA-uptake IC50
T2 construct: in synaptosomes as described in WO 97/16451; from tissue
Procedure: as §1, §2

[3] = target: T3, noradrenaline (NA) reuptake in synaptosomes (Rattus norvegicus, UniProt Q9WTR4); assay: In vitro inhibition of NA reuptake in synaptosomes; settings: 3H-NA, as described in WO 97/16451, read-out: NA-uptake IC50
T3 construct: in synaptosomes as described in WO 97/16451; from tissue
Procedure: as §1, §2

T3 sequence (Q9WTR4 1-597): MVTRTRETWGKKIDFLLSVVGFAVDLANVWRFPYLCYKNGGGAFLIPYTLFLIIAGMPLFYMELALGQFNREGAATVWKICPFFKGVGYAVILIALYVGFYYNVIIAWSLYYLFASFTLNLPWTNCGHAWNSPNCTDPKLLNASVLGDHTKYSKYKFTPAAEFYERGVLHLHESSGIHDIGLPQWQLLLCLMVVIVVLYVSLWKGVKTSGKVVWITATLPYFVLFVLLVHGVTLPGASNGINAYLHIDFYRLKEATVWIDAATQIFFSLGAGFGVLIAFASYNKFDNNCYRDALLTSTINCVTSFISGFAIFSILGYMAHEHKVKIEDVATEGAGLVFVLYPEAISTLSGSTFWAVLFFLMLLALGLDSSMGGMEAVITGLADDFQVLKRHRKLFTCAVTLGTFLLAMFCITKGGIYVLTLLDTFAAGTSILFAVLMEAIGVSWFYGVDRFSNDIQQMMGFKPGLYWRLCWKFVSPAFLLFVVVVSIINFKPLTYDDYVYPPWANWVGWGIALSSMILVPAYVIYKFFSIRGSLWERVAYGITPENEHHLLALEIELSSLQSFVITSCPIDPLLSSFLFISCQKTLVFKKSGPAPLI
T2 sequence (P23977 whole entry): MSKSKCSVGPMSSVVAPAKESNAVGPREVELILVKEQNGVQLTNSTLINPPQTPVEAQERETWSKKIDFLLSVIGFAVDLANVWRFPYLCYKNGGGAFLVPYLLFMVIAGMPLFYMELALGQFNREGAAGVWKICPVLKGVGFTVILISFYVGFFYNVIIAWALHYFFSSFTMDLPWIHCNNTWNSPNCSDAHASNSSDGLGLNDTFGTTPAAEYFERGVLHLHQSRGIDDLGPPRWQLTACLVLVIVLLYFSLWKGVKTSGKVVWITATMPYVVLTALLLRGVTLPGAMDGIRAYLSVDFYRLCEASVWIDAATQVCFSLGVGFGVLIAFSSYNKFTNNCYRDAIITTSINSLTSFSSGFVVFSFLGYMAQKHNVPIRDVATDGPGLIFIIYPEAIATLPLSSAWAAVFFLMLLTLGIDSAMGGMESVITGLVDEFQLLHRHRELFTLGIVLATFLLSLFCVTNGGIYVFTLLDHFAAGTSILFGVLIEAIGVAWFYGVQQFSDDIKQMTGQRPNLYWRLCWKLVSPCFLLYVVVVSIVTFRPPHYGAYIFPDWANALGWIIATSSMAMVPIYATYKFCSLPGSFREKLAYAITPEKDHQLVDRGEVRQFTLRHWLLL
T1 sequence (P31652 whole entry): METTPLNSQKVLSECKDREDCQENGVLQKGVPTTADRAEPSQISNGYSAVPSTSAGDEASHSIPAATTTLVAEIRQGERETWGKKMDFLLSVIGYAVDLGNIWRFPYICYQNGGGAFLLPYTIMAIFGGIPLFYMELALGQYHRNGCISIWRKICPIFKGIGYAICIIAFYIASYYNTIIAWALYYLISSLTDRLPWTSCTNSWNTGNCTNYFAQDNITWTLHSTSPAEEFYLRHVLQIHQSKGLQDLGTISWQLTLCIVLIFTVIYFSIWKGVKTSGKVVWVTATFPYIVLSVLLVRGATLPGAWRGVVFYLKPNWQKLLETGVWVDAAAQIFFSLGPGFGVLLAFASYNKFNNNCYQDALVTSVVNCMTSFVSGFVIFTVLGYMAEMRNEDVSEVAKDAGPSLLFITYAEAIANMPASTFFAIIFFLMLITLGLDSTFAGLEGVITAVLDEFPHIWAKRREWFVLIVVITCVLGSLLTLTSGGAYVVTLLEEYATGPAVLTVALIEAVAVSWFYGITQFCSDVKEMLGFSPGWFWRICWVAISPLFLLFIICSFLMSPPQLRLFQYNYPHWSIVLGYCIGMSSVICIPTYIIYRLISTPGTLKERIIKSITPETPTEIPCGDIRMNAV

| SMILES | IC50 [1] | IC50 [2] | IC50 [3] |
| --- | --- | --- | --- |
| O=c1oc2cc(O[C@@H]3C[C@H]4CC[C@@H](C3)N4)ccc2cc1-c1cccc(F)c1 [6th Compound of Example 2, exo-7-[(1S,3S,5R)-(8-Aza-bicyclo[3.2.1]oct-3-yl)oxy]-3-(3-fluoro-phenyl)-chromen-2-one hydrochloric acid salt] | 5.8 nM | 28 nM | 26 nM |
| O=c1oc2cc(O[C@@H]3C[C@H]4CC[C@@H](C3)N4)ccc2cc1-c1ccccc1 [1st Compound of Example 2, exo-7-[(1S,3S,5R)-(8-Aza-bicyclo[3.2.1]oct-3-yl)oxy]-3-phenyl-chromen-2-one hydrochloric acid salt] | 6 nM | 48 nM | 19 nM |
| O=c1cc(-c2ccccc2)c2ccc(O[C@@H]3C[C@H]4CC[C@@H](C3)N4)cc2o1 [4th Compound of Example 2, exo-7-[(1S,3S,5R)-(8-Aza-bicyclo[3.2.1]oct-3-yl)oxy]-4-phenyl-chromen-2-one hydrochloric acid salt] | 29 nM | > 1000 nM | > 1000 nM |
